Reference: paper PMC6003355 (2018)

System: WT T. oceani 112 ilvE RNA (RNA, riboswitch) GGAAGUGUACCUUAGGGUUCCGGCCAUAAGGCGUCAGCGACCGAGCGGUACAAUCCGGGGAAACCCGGAACACCGUGAGCAUAAAAGGCUCCAGCGGCAAGUUCCUAAAAGA
Assay: in-line probing
Settings: apparent; ppGpp 200 pM to 5 µM

With `Nc1nc2c(ncn2[C@@H]2O[C@H](COP(=O)(O)OP(=O)(O)O)[C@@H](OP(=O)(O)OP(=O)(O)O)[C@H]2O)c(=O)[nH]1` as the compound, how does the KD read?
Its KD is ~ 10 nM.
